From ChEMBL document CHEMBL1144147, “New annonaceous acetogenins from Rollinia mucosa” (J Nat Prod, 1999) come the findings set out here.

The experiment in a line: Cytotoxicity against human HepG2(2.2.15) cells after 3 day. Format: functional, cell-based. The following applies: HepG2 2.2.15, 72 h.

Each structure is given as a SMILES string. Converted amounts (≈) assume the structure as drawn.

Usually IC50 stands for the concentration needed to halve the response being measured. A high value points to weaker potency. In turn, `COc1cccc2c1C(=O)c1c(O)c3c(c(O)c1C2=O)C[C@@](O)(C(=O)CO)C[C@@H]3O[C@H]1C[C@H](N)[C@H](O)[C@H](C)O1` [DOXORUBICIN] yielded an IC50 of 0.45 µg/mL (≈ 0.828 µM).
